Measurements as given in PubChem BioAssay AID1963867 (Molecular Pharmacology Branch, DTP, NCI, 2024).

Test system: KRAS-mutant PDC tumor spheroid with HUVEC/MSC, viability
Experiment: Anticancer human tumor 327498-153-R-J2-PDC patient-derived uterine carcinosarcoma cell line growth inhibition [KRAS2]
Settings: for viability, T/C: stronger effect = lower value
How it was run: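 Combination screen of spheroid viability in tumor-cell co-cultures with endothelial (HUVEC) and mesenchymal stem cell stroma. Each agent was tested in half-log dilutions, topping at clinical Cmax or at 10 microM without a known Cmax.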

[1] = curve of first compound, second compound 0.1 µM
[2] = curve of first compound, second compound 0.316 µM
[3] = curve of first compound, second compound 1 µM
[4] = curve of first compound, second compound 3.16 µM
[5] = curve of first compound, second compound 10 µM
[6] = second compound 0.1 µM, first compound 0.0316 µM
[7] = second compound 0.1 µM, first compound 0.1 µM
[8] = second compound 0.1 µM, first compound 0.316 µM
[9] = second compound 0.1 µM, first compound 1 µM
[10] = second compound 0.1 µM, first compound 3.16 µM
[11] = second compound 0.316 µM, first compound 0.0316 µM
[12] = second compound 0.316 µM, first compound 0.1 µM
[13] = second compound 0.316 µM, first compound 0.316 µM
[14] = second compound 0.316 µM, first compound 1 µM
[15] = second compound 0.316 µM, first compound 3.16 µM
[16] = second compound 1 µM, first compound 0.0316 µM
[17] = second compound 1 µM, first compound 0.1 µM
[18] = second compound 1 µM, first compound 0.316 µM
[19] = second compound 1 µM, first compound 1 µM
[20] = second compound 1 µM, first compound 3.16 µM
[21] = second compound 3.16 µM, first compound 0.0316 µM
[22] = second compound 3.16 µM, first compound 0.1 µM
[23] = second compound 3.16 µM, first compound 0.316 µM
[24] = second compound 3.16 µM, first compound 1 µM
[25] = second compound 3.16 µM, first compound 3.16 µM
[26] = second compound 10 µM, first compound 0.0316 µM
[27] = second compound 10 µM, first compound 0.1 µM
[28] = second compound 10 µM, first compound 0.316 µM
[29] = second compound 10 µM, first compound 1 µM
[30] = second compound 10 µM, first compound 3.16 µM
[31] = second compound 0.1 µM, first compound 0.01 µM
[32] = second compound 0.316 µM, first compound 0.01 µM
[33] = second compound 1 µM, first compound 0.01 µM
[34] = second compound 3.16 µM, first compound 0.01 µM
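Also: spheroids exposed to agents for seven days before reading.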
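For viability, T/C in this document: 100% = DMSO vehicle wells so lower means fewer viable cells.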

SMILES | IC50 [1] | IC50 [2] | IC50 [3] | IC50 [4] | viability, T/C [6] | viability, T/C [7] | viability, T/C [8] | viability, T/C [9] | viability, T/C [10] | viability, T/C [11] | viability, T/C [12] | viability, T/C [13] | viability, T/C [14] | viability, T/C [15] | viability, T/C [16] | viability, T/C [17] | viability, T/C [18] | viability, T/C [19] | viability, T/C [20] | viability, T/C [21] | other results
CC1(C)CCC(CN2CCN(c3ccc(C(=O)NS(=O)(=O)c4ccc(NCC5CCOCC5)c([N+](=O)[O-])c4)c(Oc4cnc5[nH]ccc5c4)c3)CC2)=C(c2ccc(Cl)cc2)C1 + CNCc1ccccc1-c1csc(C(C)Nc2nc(C)nc3cc(OC)c(OC)cc23)c1 | 3280 nM | 2710 nM | 1930 nM | < 31.6 nM | 90.5% | 78.1% | 79.4% | 77.5% | 50.8% | 84.3% | 79.5% | 73.2% | 76.4% | 46% | 72.5% | 72.8% | 71.3% | 72.3% | 33.2% | 1.08% | IC50 [5]: < 31.6 nM; viability, T/C (second compound 0.1 µM, first compound 10 µM): 13.7%; viability, T/C (second compound 0.316 µM, first compound 10 µM): 9.74%; viability, T/C (second compound 1 µM, first compound 10 µM): 1.07%; viability, T/C [22]: 0.13%; viability, T/C [23]: 0.22%; viability, T/C [24]: 0.13%; viability, T/C [25]: 0.09%; viability, T/C (second compound 3.16 µM, first compound 10 µM): 0.25%; viability, T/C [26]: 0.41%; viability, T/C [27]: 0.15%; viability, T/C [28]: 0.26%; viability, T/C [29]: 0.14%; viability, T/C [30]: 0.16%; viability, T/C (second compound 10 µM, first compound 10 µM): 0.23%
Cn1ncnc1[C@H]1c2n[nH]c(=O)c3cc(F)cc(c23)N[C@@H]1c1ccc(F)cc1 | – | – | – | – | – | – | – | – | – | – | – | – | – | – | – | – | – | – | – | – | viability, T/C (compound 0.000316 µM): 103% [middle of 5 runs]; viability, T/C (compound 0.001 µM): 99% [middle of 5 runs]; viability, T/C (compound 0.00316 µM): 94.2% [middle of 5 runs]; viability, T/C (compound 0.01 µM): 81.5% [middle of 5 runs]; viability, T/C (compound 0.0316 µM): 42.4% [middle of 5 runs]; viability, T/C (compound 0.1 µM): 22.4% [middle of 5 runs]; IC50 (curve of compound): 25.3 nM [middle of 5 runs]
CC(=O)OC12COC1CC(O)C1(C)C(=O)C(O)C3=C(C)C(OC(=O)C(O)C(NC(=O)OC(C)(C)C)c4ccccc4)CC(O)(C(OC(=O)c4ccccc4)C21)C3(C)C (configuration not stated) + CC1OCC2(CCN(c3cnc(Sc4ccnc(N)c4Cl)c(N)n3)CC2)C1N | < 10 nM | < 10 nM | < 10 nM | < 10 nM | 5.15% | 5.38% | 6.78% | 9.97% | 11.7% | 4.87% | 5.16% | 6.51% | 8.59% | 12.2% | 6.9% | 11% | 6.11% | 8.45% | 11.8% | 6.18% | IC50 [5]: < 10 nM; viability, T/C [31]: 7.15%; viability, T/C [32]: 7.22%; viability, T/C [33]: 8.68%; viability, T/C [34]: 6.83%; viability, T/C [22]: 5.94%; viability, T/C [23]: 6.88%; viability, T/C [24]: 9.05%; viability, T/C [25]: 10.5%; viability, T/C (second compound 10 µM, first compound 0.01 µM): 12.6%; viability, T/C [26]: 6.42%; viability, T/C [27]: 9.06%; viability, T/C [28]: 5.82%; viability, T/C [29]: 10.8%; viability, T/C [30]: 10.4%
CC1COCCN1c1cc(-c2ccnn2C)c2ccnc(-c3ccn[nH]3)c2n1 (configuration not stated) + C=CC(=O)N1CCN(c2nc(OCC3CCCN3C)nc3c2CCN(c2cccc4cccc(C)c24)C3)CC1CC#N | 10 nM | < 10 nM | < 10 nM | < 10 nM | 21% | 9.02% | 5.92% | 6.34% | 5.2% | 21.6% | 7.42% | 4.41% | 4.61% | 4.35% | 14.6% | 3.87% | 3.63% | 4.58% | 3.92% | 0.63% | IC50 (curve of first compound, second compound 0.0316 µM): 12.5 nM; viability, T/C (second compound 0.0316 µM, first compound 0.01 µM): 55.6%; viability, T/C (second compound 0.0316 µM, first compound 0.0316 µM): 26.6%; viability, T/C (second compound 0.0316 µM, first compound 0.1 µM): 8.55%; viability, T/C (second compound 0.0316 µM, first compound 0.316 µM): 6.25%; viability, T/C (second compound 0.0316 µM, first compound 1 µM): 6.05%; viability, T/C (second compound 0.0316 µM, first compound 3.16 µM): 5.16%; viability, T/C [31]: 50.2%; viability, T/C [32]: 35.1%; viability, T/C [33]: 29.9%; viability, T/C [34]: 0.17%; viability, T/C [22]: 0.14%; viability, T/C [23]: 0.14%; viability, T/C [24]: 0.29%; viability, T/C [25]: 0.22%
